# Reference: PMC11018795, “The regulatory relationship between NAMPT and PD-L1 in cancer and identification of a dual-targeting inhibitor” (EMBO Molecular Medicine, 2024)
# Where “and” joins values, the source holds several entries; their conditions need not be identical. Equal values may be shown once.
# How the values were obtained:
# [1] = tested on: NAD+ content of A2780 cells; test: NAD+ assay in A2780 cells; format: cell-based, human; conditions: for Relative NAD+: 0 nM = 100
# Experimental: NAD^+ assays were performed to quantify the total NAD^+ content. NAD^+ assay was performed using the NAD/NADH Assay Kit (ab65348; Abcam) according to the manufacturer’s recommended protocol.
# LLC cells = test: MTT assay 48 h, LLC; format: cell-based, mouse
# Experimental: (§1) Cells (5 × 10^3/well) were seeded into a 96-well plate and cultured at 37 °C in a 5% CO2 incubator. […] At the final time point, 10 μl MTT solution (5 mg/ml, Sigma, Burlington, MA, USA) was added to each well and incubated for an additional 4 h at 37 °C in a 5% CO2 incubator. Then,100 μl of DMSO was added to each well and mixed thoroughly. Optical density was measured at 492 nm using a microplate reader (Molecular Devices, San Jose, CA, USA).
# CT-26 cells = test: MTT assay 48 h, CT-26; format: cell-based, mouse
# Experimental: as §1
# A2780 cells [2] = test: Cell cycle analysis, A2780; format: cell-based, human
# Description: Supplement 44321_2024_51_MOESM5_ESM.zip/Fig4-D.xlsx, sheet "Sheet1" | column: G0/G1; S; G2/M
# A20 tumors = test: A20 tumor-bearing Balb/c nude mice; format: in vivo, mouse; conditions: 20 mg/kg i.p., Fig 6E
# Experimental: The 4–6 weeks-old Balb/c mice and Balb/c nude mice were maintained in a specific pathogen-free (SPF) facility. A20 cells (5 × 10^6 cells in 0.2 ml phosphate-buffered saline) were subcutaneously injected into the right armpit of Balb/c mice and Balb/c nude mice. Tumor volume was measured using calipers every 2 days and calculated using the following formula: (long diameter) × (short diameter)^2/2. […] Balb/c nude mice were treated with LZFPN-90 (20 mg/kg). After 12 days of administration, the animals were anesthetized, and tumors were excised. Some fresh tumor tissues were subjected to immune cell isolation. Tissues were either fixed in 4% formalin or stored at −80 °C until further analysis.
# A2780 cells [3] = test: Clonogenic assay, A2780; format: cell-based, human; conditions: 9 days
# Experimental: (§2) Cells (3 × 10^2/well) were plated in a six-well plate and the culture medium was replaced every 2 days. After culturing for 7–10 d, the cells were fixed with 4% paraformaldehyde for 15 min, stained with 0.1% crystal violet for 30 min, and imaged and counted.
# A2780 cells [4] = test: MTT assay 48 h, A2780; format: cell-based, human
# Experimental: as §1
# [5] = In vitro metabolic stability in human liver microsome; format: in vitro ADME
# Experimental: 2) Pharmacokinetics: Human liver microsomal stability assay is widely adopted in the preliminary evaluation for pharmacokinetic properties, reflecting the potential metabolic stability of indicated compounds in the human body. Thus, considering the […]
# activity of LZFPN-90, it was further evaluated for potential metabolism in human liver microsome. The intrinsic clearance for LZFPN-90 in human liver microsome is 0.035 mL/min/mg. According to the classical criteria (Low clearance: CLint < 0.01 mL/min/mg; medium clearance: 0.01 ≤ CLint ≤ 0.1 mL/min/mg; high clearance: CLint > […]
# indicating its potential for further development. […]
# Table 1. In Vitro Metabolic Stability of LZFPN-90 in Human Liver Microsome T1/2 CLint, in vitro Remaining
# (min)a (mL/min/mg)b (T = 60 min) […]
# b CLint: intrinsic clearance, CLint(mic)=0.693/T1/2/mg microsomal protein/mL
# (1 picture or pasted object on this page, not shown here)
# MDA-MB-231 cells = test: MTT assay 48 h, MDA-MB-231; format: cell-based, human
# Experimental: as §1
# A2780 cells [6] = test: Apoptosis assay (Annexin V/PI), A2780; format: cell-based, human
# Experimental: The cells are treated with the compounds. After 48–72 h, the cells were harvested and washed twice with cold PBS. The cells were then stained with Annexin V/propidium iodide (PI) (BD Biosciences) and examined using a NovoCyte Flow Cytometer (ACEA Biosciences). Data were analyzed using NovoExpress software (ACEA Biosciences).
# LLC Vector cells = test: Cell viability 72 h, LLC Vector (Fig 4C); format: cell-based, mouse
# Experimental: as §1, with “In vitro cell viability was determined using a Cell Counting Kit-8 (MCE) assay. Cells (5 × 10^3/well) were seeded in 96-well culture plates. After 24 h, they were incubated with various concentrations of the test compounds for 48–72 h at 37 °C in a 5% CO2 incubator. Next, 10% of the CCK-8 solution was added to each well, and the plates were incubated for an additional 4 h at 37 °C. The optical density of each well was measured at 450 nm using a multimode plate reader (Molecular Devices, San Jose, CA, USA). Cells” for “Cells”
# HCT-116 cells [7] = test: Clonogenic assay, HCT-116; format: cell-based, human; conditions: 9 days
# Experimental: as §2
# [8] = tested on: LLC OE NAMPT/PD-L1 tumors; test: LLC OE NAMPT/PD-L1 tumor-bearing C57BL/6 mice; format: in vivo, mouse; conditions: 20 mg/kg i.p.
# HCT-116 cells [9] = test: MTT assay 48 h, HCT-116; format: cell-based, human
# Experimental: as §1
smiles,measurement,setting,value
CCN(CC)CCCOc1cccc(-c2cccc3c2CCN3C(=O)c2ncc(CNC(=NC#N)Nc3ccncc3)s2)c1 [LZFPN-90],effect on NAD+ content,[1]; A2780 cells,concentration-dependent reduction in the NAD^+ content
same,Relative NAD+,[1]; LZFPN-90 1.25 nM,35.1891 and 32.3761
same,Relative NAD+,[1]; LZFPN-90 2.5 nM,12.5247 and 11.2894
same,Relative NAD+,[1]; LZFPN-90 5 nM,8.877 and 6.867
same,Relative NAD+,[1]; LZFPN-90 10 nM,2.626 and 2.637
same,Relative inhibition (敏感性),LLC cells; LLC,0.15
same,effect on relative viability of LLC cells,"LLC cells; MTT, 64 nM",basically had no effect
same,Relative inhibition (敏感性),CT-26 cells,0.17
same,Cell cycle G0/G1,A2780 cells [2]; LZ90 20,36.54 and 37.05 and 37.41
same,Cell cycle G2/M,A2780 cells [2]; LZ90 20,35.48 and 38.97 and 35.02
same,Cell cycle S,A2780 cells [2]; LZ90 20,24.02 and 27.3 and 26.67
same,Cell cycle G0/G1,A2780 cells [2]; LZ90 40,46.76 and 45.07
same,Cell cycle G2/M,A2780 cells [2]; LZ90 40,35.5 and 29.25 and 33.56
same,Cell cycle S,A2780 cells [2]; LZ90 40,23.4 and 20.94 and 19.12
same,Cell cycle G0/G1,A2780 cells [2]; LZ90 60,32.3 and 44.46
same,Cell cycle G2/M,A2780 cells [2]; LZ90 60,27.02 and 27.05
same,Cell cycle S,A2780 cells [2]; LZ90 60,39.91 and 27.43
same,TIR (relative tumor weight),A20 tumors,46.2%
same,Colony formation relative to Ctrl,A2780 cells [3]; LZ90-H (2 nM),0.01
same,Colony formation relative to Ctrl,"A2780 cells [3]; LZ90-L (0.5 nM), Ctrl = 1",0.64
same,Colony formation relative to Ctrl,A2780 cells [3]; LZ90-M (1 nM),0.11
same,Relative inhibition (敏感性),A2780 cells [4],0.85
same,stability in human liver microsome,"[5]; criteria: low CLint < 0.01, medium 0.01-0.1, high > 0.1 mL/min/mg",moderate stability in human liver microsome
same,Remaining (T = 60 min),[5]; human liver microsome,36.8%
same,half-life,"[5]; liver microsomes, human liver microsome",39.6 min
same,microsomal CLint,"[5]; liver microsomes, human liver microsome, read-out: CLint, in vitro (intrinsic clearance)",35 µL/min/mg
same,Relative inhibition (敏感性),MDA-MB-231 cells,0.09
same,Apoptotic cells (sum of both Annexin-positive quadrants),A2780 cells [6]; LZ90 15 nM,5.88 and 5.86 and 5.93
same,Apoptotic cells (sum of both Annexin-positive quadrants),A2780 cells [6]; LZ90 60 nM,12.2 and 12.06 and 12.87
same,Apoptotic cells (sum of both Annexin-positive quadrants),A2780 cells [6]; LZ90 240 nM,48.53 and 48.13 and 46.72
same,Relative viability,"LLC Vector cells; LZ90 0.25 (nM), 0 = 100",89.7901 and 87.9705 and 96.555
same,Relative viability,LLC Vector cells; LZ90 1,87.3413 and 95.1235 and 101.277
same,Relative viability,LLC Vector cells; LZ90 4,85.618 and 92.9893 and 92.8571
same,Relative viability,LLC Vector cells; LZ90 16,83.9984 and 83.5338 and 75.7769
same,Relative viability,LLC Vector cells; LZ90 64,79.4506 and 87.9576 and 68.4293
same,Relative viability,LLC Vector cells; LZ90 256,70.355 and 68.0766 and 71.9586
same,Colony formation relative to Ctrl,HCT-116 cells [7]; LZ90-H (2 nM),0.17
same,Colony formation relative to Ctrl,"HCT-116 cells [7]; LZ90-L (0.5 nM), Ctrl = 1",0.6
same,Colony formation relative to Ctrl,HCT-116 cells [7]; LZ90-M (1 nM),0.26
same,TIR / tumor growth inhibition (TGI) rate at endpoint,"[8]; 14 days, Fig 7B",76.01%
same,TIR (relative tumor weight),"[8]; LLC OE NAMPT/PD-L1, Fig 7G",76.0%
same,effect on the organs of mice,[8]; LLC OE NAMPT/PD-L1 model,minor effect on the organs of mice
same,Relative inhibition (敏感性),HCT-116 cells [9],0.61
